Measurements published in patent US5849587A, “Method of inhibiting viral replication in eukaryotic cells and of inducing apoptosis of virally-infected cells” (Cornell Research Foundation, Inc., priority 1995, dated 1998).

Columns and labels:
Deoxyhypusyl hydroxylase = target: T1, Deoxyhypusyl hydroxylase (Homo sapiens, UniProt Q9BU89); assay: Cellular deoxyhypusyl hydroxylase (hypusine formation) inhibition, human B-cells and human smooth muscle cells; assay type: cell-based; conditions: concentration for half-maximal inhibition
T1 construct: endogenous in cells
T1 sequence (Q9BU89 1-302): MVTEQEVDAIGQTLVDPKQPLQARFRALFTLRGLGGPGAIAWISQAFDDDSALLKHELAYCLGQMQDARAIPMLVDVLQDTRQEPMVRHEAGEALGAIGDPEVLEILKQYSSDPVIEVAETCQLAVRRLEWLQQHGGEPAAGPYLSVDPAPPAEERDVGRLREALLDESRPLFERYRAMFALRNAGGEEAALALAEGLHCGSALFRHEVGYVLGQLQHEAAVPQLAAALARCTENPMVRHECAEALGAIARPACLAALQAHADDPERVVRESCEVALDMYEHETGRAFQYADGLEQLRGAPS
Method: (§1) The cell-free enzyme assay was performed to test a pilot peptidomimetic which can be equipped with hydroxypyridone warheads. The cell culture studies were performed to establish the inherent inhibitory potency of such hydroxypyridones.
DOHH Assay. The intracellular conversion of peptide-bound deoxyhypusine to peptidyl hypusine was determined after preincubation of human T lymphocyte-derived cells (i.e. ACH-2) [Clouse et al., J. Immunol. 142, 431-438 (1989), which is hereby incorporated by reference] with the hypusine inhibitors mimosine and HK-1 for 60 minutes, followed by labeling for 21 hours with ^3 H-spermidine (3.75 μCi/ml) in wells containing 3×10^6 cells suspended in 8 ml of serum-supplemented and antibiotic-containing RPMI 1640 medium. Cells were then split into two groups, one of them being harvested immediately to assess degree of DOHH inhibition, and the other harvested after transfer of the cells into inhibitor-free medium for 2 hours to measure resumption of DOHH activity. Harvesting consisted in precipitation of washed cells with 10% TCA containing 1 mM each of putrescine, spermidine, and spermine. Cellular proteins from each sample were then hydrolyzed in 6N HCl at 110° C. for 16 hours. The hydrolysate was analyzed for labeled amino acids on an amino acid analyzer by published methods [Park et al., J. Biol. Chem., 257, 7217-7222 (1982), which is hereby incorporated by reference]. The retention times of hypusine and deoxyhypusine were determined from standards. Similar studies were performed in human B-cells and human smooth muscle cells.
The concentration required for half-maximal inhibition (ID50) of the cellular enzyme activity is identified for each compound.

[1] = tested on: deoxyhypusyl hydroxylase (DOHH); assay: Cell-free DOHH assay with purified enzyme and unhydroxylated eIF-5A precursor; assay type: biochemical; conditions: purified rat enzyme, unhydroxylated eIF-5A, FIG. 4B
Method: The graph gives the chromatographic profile of metabolically labeled hypusine/deoxyhypusine obtained after incubation of the purified rat enzyme with unhydroxylated eIF-5A in the absence (open squares) and presence (closed squares) of mimetic III. […] Peptides of appropriate structure or peptidomimetics like mimetic III can serve as "carriers" for a reactive moiety termed "warhead" that, by virture of its attachment to the carrier, becomes precisely oriented to interact optimally with the active site metal ion of DOHH. In the case of mimetic III, such a warhead moiety can be attached at the site indicated by the asterisk in FIG. 4A.
as §1
DOHH Assay. Enzyme activity was purified and determined, as described by Abbruzzese et al., J Biol Chem 261:3085-9 (1986), which is hereby incorporated by reference. Briefly, the enzyme is offered as labeled deoxyhypusine-containing eIF-5A precursor, and, following standard incubation conditions, the conversion into hypusine residues is measured by chromatographic amino acid separation of the hydrolyzed proteins. […] Biophys. Acta, 1221, 115-124 (1994), which is hereby incorporated by reference]. […]

Row | Structure (SMILES) | Deoxyhypusyl hydroxylase ID50 (cellular) (Deoxyhypusyl hydroxylase) | deoxyhypusine-to-hypusine conversion in presence of compound [1] | deoxyhypusine-to-hypusine conversion in presence of compound ([1]; listed as mimetic of Formula III)
1 | CCc1c(O)c(=O)ccn1CC [HK-2] | 50 | – | –
2 | COCCn1ccc(=O)c(O)c1C [HK-15] | 60 | – | –
3 | C=CCn1ccc(=O)c(O)c1C [HK-16] | 50 | – | –
4 | CCn1ccc(=O)c(O)c1C [HK-26] | 58 | – | –
5 | CCCn1ccc(=O)c(O)c1C [HK-27] | 50 | – | –
6 | NC(CO)C1CCC(=O)NC(CO)C(=O)N(C(Cc2ccccc2)C(=O)O)NC1=O (stereo not shown) [mimetic III] | – | clearly reduced | the deoxyhypusine-to-hypusine conversion was suppressed
